Test results published in ChEMBL document CHEMBL5244232, “Progress in 11β-HSD1 inhibitors for the treatment of metabolic diseases: A comprehensive guide to their chemical structure diversity in drug development” (Eur J Med Chem, 2020).
Several values for one entry are separate records, joined by “and”; a condition that tells them apart may be missing. Identical values can stand only once. Blank lines part the entries; values can stand above or below the molecule they belong to.

Assays:
[1] = target: T1, 11-beta-hydroxysteroid dehydrogenase 1 (Homo sapiens, UniProt P28845); test: Inhibition of human 11beta-HSD1
[2] = target: T2, 11-beta-hydroxysteroid dehydrogenase 1 (Mus musculus, UniProt P50172); test: Inhibition of mouse 11beta-HSD1
[3] = target: T1, 11-beta-hydroxysteroid dehydrogenase 1; test: Inhibition of human 11beta-HSD1 using steroid as substrate incubated for 20 to 30 mins by microplate fluorimeter analysis
[4] = target: T2, 11-beta-hydroxysteroid dehydrogenase 1; test: Inhibition of mouse 11beta-HSD1 expressed in CHO-K1 cells incubated for 3 hrs by HTRF assay; assay type: cell-based
[5] = target: T1, 11-beta-hydroxysteroid dehydrogenase 1; test: Inhibition of human 11beta-HSD1 incubated for 30 mins by HPLC-MS/MS analysis
[6] = target: T3, 11-beta-hydroxysteroid dehydrogenase 1 (Rattus norvegicus, UniProt P16232); test: Inhibition of rat 11beta-HSD1 expressed in Leydig cells; assay type: cell-based
[7] = Inhibition of rat 11beta-HSD2 expressed in Leydig cells; assay type: cell-based
[8] = target: T2, 11-beta-hydroxysteroid dehydrogenase 1; test: Inhibition of mouse 11beta-HSD1 expressed in CHO-K1 cells incubated for 24 hrs by HTRF assay; assay type: cell-based
[9] = target: T2, 11-beta-hydroxysteroid dehydrogenase 1; test: Inhibition of mouse 11beta-HSD1 in liver microsome incubated for 24 hrs by LC-MS analysis; assay type: microsomes
[10] = target: Hydroxysteroid 11-beta dehydrogenase 1 (Macaca mulatta, UniProt Q56D22); test: Inhibition of monkey 11beta-HSD1 in liver microsome incubated for 24 hrs by LC-MS analysis; assay type: microsomes
[11] = target: T1, 11-beta-hydroxysteroid dehydrogenase 1; test: Inhibition of human 11beta-HSD1 in liver microsome incubated for 24 hrs by LC-MS analysis; assay type: microsomes
[12] = target: T2, 11-beta-hydroxysteroid dehydrogenase 1; test: Inhibition of mouse 11beta-HSD1 expressed in 3T3-L1 cells incubated for 24 hrs by HTRF assay; assay type: cell-based
[13] = target: T2, 11-beta-hydroxysteroid dehydrogenase 1; test: Inhibition of mouse 11beta-HSD1 incubated for 24 hrs by HTRF assay
[14] = target: T4, 11-beta-hydroxysteroid dehydrogenase type 2 (Homo sapiens, UniProt P80365); test: Inhibition of human 11beta-HSD2 incubated for 2 hrs by HPLC analysis
T4 sequence (P80365 whole entry): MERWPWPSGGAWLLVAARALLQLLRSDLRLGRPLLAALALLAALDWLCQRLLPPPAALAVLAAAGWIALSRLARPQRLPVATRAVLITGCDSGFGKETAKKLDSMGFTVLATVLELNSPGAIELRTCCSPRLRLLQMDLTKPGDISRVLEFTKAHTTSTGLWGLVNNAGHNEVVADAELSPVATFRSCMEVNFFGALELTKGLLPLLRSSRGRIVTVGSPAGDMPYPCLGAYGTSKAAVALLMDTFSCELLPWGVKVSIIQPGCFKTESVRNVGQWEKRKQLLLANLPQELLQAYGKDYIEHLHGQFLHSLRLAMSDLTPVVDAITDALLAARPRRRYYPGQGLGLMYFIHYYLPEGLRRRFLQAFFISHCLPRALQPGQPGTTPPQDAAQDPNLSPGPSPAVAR

[15] = target: T3, 11-beta-hydroxysteroid dehydrogenase 1; test: Inhibition of rat 11beta-HSD1
[16] = target: T3, 11-beta-hydroxysteroid dehydrogenase 1; test: Inhibition of rat 11beta-HSD1 in kidney microsomes incubated for 20 mins by HPLC analysis; parameters: species or system Microsome
[17] = target: 11-beta-hydroxysteroid dehydrogenase 1 (Rattus norvegicus) (UniProt P16232); test: Inhibition of rat 11beta-HSD1 in adipose tissue microsome

T3 sequence (P16232 whole entry): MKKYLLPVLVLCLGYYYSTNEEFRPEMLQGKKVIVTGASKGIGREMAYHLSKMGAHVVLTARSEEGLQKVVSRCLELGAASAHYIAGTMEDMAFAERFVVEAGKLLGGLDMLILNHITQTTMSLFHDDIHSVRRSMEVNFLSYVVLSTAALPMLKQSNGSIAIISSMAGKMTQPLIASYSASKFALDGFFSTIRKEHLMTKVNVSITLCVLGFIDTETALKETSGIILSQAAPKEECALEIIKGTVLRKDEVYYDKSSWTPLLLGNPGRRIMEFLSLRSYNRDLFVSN
T2 sequence (P50172 whole entry): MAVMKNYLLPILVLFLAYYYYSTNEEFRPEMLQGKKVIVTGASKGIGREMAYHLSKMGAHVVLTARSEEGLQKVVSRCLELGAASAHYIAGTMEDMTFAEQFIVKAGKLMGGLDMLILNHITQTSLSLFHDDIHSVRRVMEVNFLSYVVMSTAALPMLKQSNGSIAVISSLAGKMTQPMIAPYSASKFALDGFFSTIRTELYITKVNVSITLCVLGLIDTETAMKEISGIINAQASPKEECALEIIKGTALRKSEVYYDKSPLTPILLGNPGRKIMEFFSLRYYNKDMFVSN
T1 sequence (P28845 whole entry): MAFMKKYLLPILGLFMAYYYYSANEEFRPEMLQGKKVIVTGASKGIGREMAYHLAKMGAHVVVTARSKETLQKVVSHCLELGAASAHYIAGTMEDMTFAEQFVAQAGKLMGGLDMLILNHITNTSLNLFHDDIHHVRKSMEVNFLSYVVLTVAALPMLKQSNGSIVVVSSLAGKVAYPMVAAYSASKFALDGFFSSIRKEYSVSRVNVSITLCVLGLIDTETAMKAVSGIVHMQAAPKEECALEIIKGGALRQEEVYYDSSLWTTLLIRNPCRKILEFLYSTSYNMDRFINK
Hydroxysteroid 11-beta dehydrogenase 1, sequence (Q56D22 whole entry): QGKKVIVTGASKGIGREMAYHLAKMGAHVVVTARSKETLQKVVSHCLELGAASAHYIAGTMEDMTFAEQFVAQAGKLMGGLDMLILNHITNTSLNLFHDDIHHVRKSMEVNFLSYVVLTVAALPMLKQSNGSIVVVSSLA

IC50 [1]: 61 nM
Compound: O=S(=O)(c1ccccc1)N1CCN(c2ncccc2C(F)(F)F)CC1

IC50 [2]: 4.3 nM
Compound: C[C@@H](c1ccc(-c2ccn(C)c(=O)c2)cc1)N1CC[C@](CC(C)(C)O)(c2ccccc2)OC1=O

IC50 [3]: 335 nM
Compound: O=C(Cc1csc(NS(=O)(=O)c2c(Cl)cc(Cl)cc2Cl)n1)N1CCOCC1

IC50 [3]: 63 nM
Compound: O=S(=O)(Nc1nc(-c2sccc2Cl)cs1)c1cc(F)c(Br)cc1F

IC50 [4]: 2130 nM
Compound: O=C(NC12CC3CC(CC(C3)C1)C2)C1NCCS1 (configuration not stated)

IC50 [5]: 9.07 µM
Compound: CC1=C2[C@H](C)[C@@H](C)O[C@]23O[C@H](C)[C@@H](C)O[C@@]3(O)CC1=O

IC50 [6]: 100 nM | IC50 [7]: > 100 µM
Compound: O=C1/C(=C\c2ccccc2C(F)(F)F)CCC/C1=C\c1ccccc1C(F)(F)F

IC50 [8]: 0.4 nM
Compound: NC(=O)C12CC3CC(CC(NC(=O)CN4CCCN(c5c(Cl)cc(Cl)cc5Cl)S4(=O)=O)(C3)C1)C2

IC50 [3]: 55 nM
Compound: Cc1nc(NS(=O)(=O)c2ccc(Cl)cc2Cl)sc1CC(Cl)(Cl)Cl

IC50 [9]: 2.8 nM | IC50 [10]: 2.43 nM | IC50 [11]: 0.02 nM
Compound: CN(CC1(C(=O)NC23CC4CC(C2)CC(C(N)=O)(C4)C3)CC1)S(=O)(=O)c1ccccc1F

IC50 [4]: 5.2 nM | IC50 [12]: 3 nM
Compound: NC(=O)C12CC3CC(CC(NC(=O)C4SCCN4S(=O)(=O)c4ccccc4F)(C3)C1)C2 (configuration not stated)

IC50 [13]: 210 nM
Compound: O=C(CN1C(C(=O)c2ccccc2)=C(O)c2ccccc2S1(=O)=O)c1ccccc1

Compound: O=C(O[C@@H]1Cc2c(O)cc(O)cc2O[C@@H]1c1cc(O)c(O)c(O)c1)c1cc(O)c(O)c(O)c1 [EPIGALOCATECHIN GALLATE]
IC50 [14]: 20.9 µM

IC50 [2]: 1 nM and 8 nM | IC50 [15]: 8 nM | IC50 [1]: 11 nM
Compound: C[C@@H]1CN(c2ccc(F)cc2C(F)(F)F)CCN1S(=O)(=O)c1cccc([C@@](C)(O)C(F)(F)F)c1 [HSD-016]

IC50 [16]: 35.2 µM | IC50 [17]: 1000 nM
Compound: Oc1ccc(/C=C/c2cc(O)cc(O)c2)cc1 [RESVERATROL]
